Assay [1] concerns Phosphorylated Ribosomal Protein S6 (RPS6) in THP-1 cells. The assay can be described thus: THP-1 RPS6 ELISA Assay. The class given is cell-based, Human. Conditions: MCP-1 stimulated, phospho-RPS6 ELISA, read-out: THP p-RPS6 ELISA IC50. Here is the method: Example A. THP-1 RPS6 ELISA Assay
To measure the Phosphorylated Ribosomal Protein S6 (RPS6) in cell lysates, THP-1 cells (Human Acute Monocytic Leukemia) are purchased from ATCC (Manassas, Va.) and maintained in RPMI with 10% FBS (Gibco/Life Technologies, Carlsbad, Calif.). For the assay, THP-1 cells are serum starved overnight in RPMI, then plated in RPMI (2×10^5 cells/well in 90 μL) into 96-well flat-bottom tissue culture treated plates (Corning, Corning, N.Y.), in the presence or absence of a concentration range of test compounds. Covered plates are incubated for 2 hours at 37° C., 5% CO2 then treated with or without 10 nM MCP-1 (MYBioSource, San Diego, Calif.) for 15 minutes at 37° C., 5% CO2. Plates are centrifuged at 1600 RPM and supernatants are removed. Cells are lysed in Lysis Buffer (Cell Signaling, Danvers, Mass.) with Protease Inhibitor (Calbiochem/EMD, Germany), PMSF (Sigma, St Louis Mo.), HALTS (Thermo Fisher, Rockford, Ill.) for 30 min on wet ice. Cell lysates are frozen at −80° C. before testing. The lysates are tested in the Human/Mouse/Rat Phospho-RPS6 ELISA (R&D Systems, Inc. Minn, Minn.). The plate is measured using a microplate reader (SpectraMax M5—Molecular Devices, LLC Sunnyvale, Calif.) set to 450 nm with a wavelength correction of 540. IC50 determination is performed by fitting the curve of inhibitor percent inhibition versus the log of the inhibitor concentration using the GraphPad Prism 5.0 software.

For assay [2], the target named is PI3Kγ (p110γ) Recombinant Human Protein (Homo sapiens (Human), UniProt P48736). The assay can be described thus: PI3K-γ Scintillation Proximity Assay. The format is biochemical. Conditions: read-out: PI3K-gamma SPA IC50. Put shortly: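 Recombinant human p110γ (13 nM) with 20 μM PIP2 and 2 μM ATP plus 0.5 μCi [γ-33P]ATP in 20 mM MOPS pH 6.7, 10 mM MgCl2, 5 mM DTT, 0.03% CHAPS, 2% DMSO, 120 min at room temperature. Product captured on WGA SPA beads and counted; IC50 fitted from % of solvent control versus log concentration.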

Assay [3] addresses PI3Kδ (p110δ/p85α) Recombinant Human Protein (Homo sapiens (Human), UniProt O00329). The assay can be described thus: PI3Kδ Scintillation Proximity Assay. The format is biochemical. Conditions: read-out: PI3K-delta SPA IC50. In outline:
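Recombinant human p110δ/p85α (3.4 nM) with 20 μM PIP2 and 2 μM ATP plus [γ-33P]ATP, in 20 mM MOPS pH 6.7, 10 mM MgCl2, 5 mM DTT, 0.03% CHAPS, 2% DMSO; 120 min at room temperature. Product captured on WGA SPA beads, scintillation counted; IC50 from percent-of-control curves.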

Structures can show the parent of a compound that is named as a salt. Where two headings read alike, the source gives them in different places.

Sequence of PI3Kγ (p110γ) Recombinant Human Protein (P48736 whole entry): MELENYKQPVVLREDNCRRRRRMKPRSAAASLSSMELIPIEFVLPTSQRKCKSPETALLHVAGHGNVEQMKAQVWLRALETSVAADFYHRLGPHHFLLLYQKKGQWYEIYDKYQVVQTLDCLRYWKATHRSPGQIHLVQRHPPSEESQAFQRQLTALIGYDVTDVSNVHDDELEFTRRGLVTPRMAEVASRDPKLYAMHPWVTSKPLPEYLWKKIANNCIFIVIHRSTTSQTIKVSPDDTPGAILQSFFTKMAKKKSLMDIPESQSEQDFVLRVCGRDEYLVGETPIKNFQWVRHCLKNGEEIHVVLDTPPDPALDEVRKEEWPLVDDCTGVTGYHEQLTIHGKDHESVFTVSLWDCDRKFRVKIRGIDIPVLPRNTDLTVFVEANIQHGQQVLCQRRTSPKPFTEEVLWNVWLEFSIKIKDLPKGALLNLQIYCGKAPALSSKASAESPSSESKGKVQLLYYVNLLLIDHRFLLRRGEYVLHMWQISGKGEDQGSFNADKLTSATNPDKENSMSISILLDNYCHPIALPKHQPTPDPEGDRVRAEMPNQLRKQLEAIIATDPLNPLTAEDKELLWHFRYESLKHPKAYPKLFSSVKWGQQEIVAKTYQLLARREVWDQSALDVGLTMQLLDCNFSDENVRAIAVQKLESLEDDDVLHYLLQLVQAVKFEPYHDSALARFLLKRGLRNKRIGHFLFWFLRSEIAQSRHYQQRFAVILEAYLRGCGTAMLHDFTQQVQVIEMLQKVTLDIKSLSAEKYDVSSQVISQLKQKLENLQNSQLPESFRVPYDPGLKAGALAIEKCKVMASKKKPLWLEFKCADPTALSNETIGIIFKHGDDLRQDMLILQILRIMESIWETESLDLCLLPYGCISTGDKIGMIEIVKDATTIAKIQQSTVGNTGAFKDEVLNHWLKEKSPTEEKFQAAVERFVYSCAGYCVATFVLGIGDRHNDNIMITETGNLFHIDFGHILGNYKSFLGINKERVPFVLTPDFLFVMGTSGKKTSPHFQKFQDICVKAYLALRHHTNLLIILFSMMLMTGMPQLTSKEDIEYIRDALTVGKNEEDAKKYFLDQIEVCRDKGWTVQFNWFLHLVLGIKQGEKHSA
Sequence of PI3Kδ (p110δ/p85α) Recombinant Human Protein (O00329 whole entry): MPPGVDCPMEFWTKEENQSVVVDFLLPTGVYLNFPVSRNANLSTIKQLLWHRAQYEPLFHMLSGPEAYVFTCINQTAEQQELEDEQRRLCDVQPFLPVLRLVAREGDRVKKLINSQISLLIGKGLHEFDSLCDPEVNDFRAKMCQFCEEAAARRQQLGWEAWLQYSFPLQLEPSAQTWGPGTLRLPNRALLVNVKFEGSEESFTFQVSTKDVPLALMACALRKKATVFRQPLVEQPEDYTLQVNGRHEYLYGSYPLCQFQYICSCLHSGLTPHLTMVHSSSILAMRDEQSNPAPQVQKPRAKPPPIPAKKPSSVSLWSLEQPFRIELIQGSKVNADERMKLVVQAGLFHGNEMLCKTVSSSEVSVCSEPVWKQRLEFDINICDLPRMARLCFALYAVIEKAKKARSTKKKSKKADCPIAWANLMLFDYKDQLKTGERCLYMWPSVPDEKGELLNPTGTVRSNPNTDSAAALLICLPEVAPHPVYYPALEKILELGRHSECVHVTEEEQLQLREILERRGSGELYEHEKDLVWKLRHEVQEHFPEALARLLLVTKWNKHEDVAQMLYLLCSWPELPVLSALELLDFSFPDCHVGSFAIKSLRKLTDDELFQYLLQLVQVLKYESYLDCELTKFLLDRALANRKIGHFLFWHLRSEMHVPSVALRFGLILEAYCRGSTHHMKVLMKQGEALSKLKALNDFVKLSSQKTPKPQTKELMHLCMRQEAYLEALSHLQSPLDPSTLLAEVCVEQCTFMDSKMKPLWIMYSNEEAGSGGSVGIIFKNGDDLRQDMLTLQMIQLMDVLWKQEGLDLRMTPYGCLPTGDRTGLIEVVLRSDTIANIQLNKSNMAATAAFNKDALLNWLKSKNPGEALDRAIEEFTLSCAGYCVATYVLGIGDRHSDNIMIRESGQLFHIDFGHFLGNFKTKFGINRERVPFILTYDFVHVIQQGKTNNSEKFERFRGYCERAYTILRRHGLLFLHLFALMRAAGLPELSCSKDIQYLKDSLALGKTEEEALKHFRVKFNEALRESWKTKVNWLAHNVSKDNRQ
Sequence of PI3Kδ (p110δ/p85α) Recombinant Human Protein (P27986 whole entry partner): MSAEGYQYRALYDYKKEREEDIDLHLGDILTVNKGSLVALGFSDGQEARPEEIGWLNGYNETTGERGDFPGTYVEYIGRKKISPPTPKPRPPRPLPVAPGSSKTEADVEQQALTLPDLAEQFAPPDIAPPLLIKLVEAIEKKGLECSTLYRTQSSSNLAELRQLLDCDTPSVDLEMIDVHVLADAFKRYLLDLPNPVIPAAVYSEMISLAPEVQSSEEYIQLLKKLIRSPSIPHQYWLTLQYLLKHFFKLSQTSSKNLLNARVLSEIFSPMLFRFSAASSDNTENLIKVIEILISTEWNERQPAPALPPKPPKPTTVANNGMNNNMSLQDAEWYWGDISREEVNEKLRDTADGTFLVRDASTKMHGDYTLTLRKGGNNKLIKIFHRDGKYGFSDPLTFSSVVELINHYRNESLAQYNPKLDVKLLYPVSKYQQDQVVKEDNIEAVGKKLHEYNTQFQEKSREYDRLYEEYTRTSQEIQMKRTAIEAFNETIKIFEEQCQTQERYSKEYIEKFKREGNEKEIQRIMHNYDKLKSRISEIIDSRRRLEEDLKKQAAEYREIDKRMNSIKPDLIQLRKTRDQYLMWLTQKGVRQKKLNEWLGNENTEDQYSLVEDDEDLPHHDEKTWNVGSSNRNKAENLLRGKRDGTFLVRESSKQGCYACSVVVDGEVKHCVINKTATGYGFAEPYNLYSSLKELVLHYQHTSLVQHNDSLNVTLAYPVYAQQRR

On to `c1cc(-c2cncc(N3CCOCC3)c2)cc(-c2ncc(C3CCC3)[nH]2)n1` [Example 103, 4-(2′-(5-Cyclobutyl-1H-imidazol-2-yl)-3,4′-bipyridin-5-yl)morpholine trifluoroacetate salt], for which the IC50 in assay [1] (Homo sapiens) is 1000 to 5000 nM; in assay [2], at most 100 nM; in assay [3], at most 50 nM.

Regarding `Cc1nc(-c2cc(C3=CCCN(S(=O)(=O)c4ccc(Cl)cc4)C3)ccn2)[nH]c1C` [Example 221, 4-(1-(4-Chlorophenylsulfonyl)-1,2,5,6-tetrahydropyridin-3-yl)-2-(4,5-dimethyl-1H-imidazol-2-yl)pyridine trifluoroacetate salt], the results for the IC50 in assay [1] (Homo sapiens), in assay [2] and in assay [3] were above 5000 nM, at most 100 nM and at most 500 nM, respectively.

With `Cc1nc(-c2cc(-c3cncc(C(=O)N4C5CCC4CC5)c3)ccn2)[nH]c1C` [Example 179, 5-(7-Azabicyclo[2.2.1]hept-7-ylcarbonyl)-2′-(4,5-dimethyl-1H-imidazol-2-yl)-3,4′-bipyridine trifluoroacetate salt], the IC50 in assay [1] (Homo sapiens) is at most 300 nM; in assay [2], at most 50 nM; in assay [3], at most 100 nM.

On to `Cc1[nH]c(-c2cc(-c3cncc(S(C)(=O)=O)c3)ccn2)nc1C(=O)NC1CCCC1` [Example 243, N-Cyclopentyl-5-methyl-2-[5-(methylsulfonyl)-3,4′-bipyridin-2′-yl]-1H-imidazole-4-carboxamide], for which the IC50 was at most 300 nM in assay [1] (Homo sapiens), at most 50 nM in assay [2] and at most 50 nM in assay [3].

For `Cc1[nH]c(-c2cc(-c3cncc(S(C)(=O)=O)c3)ccn2)nc1C(=O)O` [Example 119, 5-Methyl-2-(5-(methylsulfonyl)-3,4′-bipyridin-2′-yl)-1H-imidazole-4-carboxylic acid trifluoroacetate salt], the IC50 was above 5000 nM in assay [1] (Homo sapiens), at most 50 nM in assay [2] and above 500 nM in assay [3].

As for `Cc1nc(-c2cc(-c3cncc(S(C)(=O)=O)c3)ccn2)[nH]c1C` [Example 108, 2′-(4,5-Dimethyl-1H-imidazol-2-yl)-5-(methylsulfonyl)-3,4′-bipyridine trifluoroacetate salt], the IC50 in assay [1] (Homo sapiens) is at most 300 nM; in assay [2], at most 50 nM; in assay [3], at most 50 nM.

Regarding `CO[C@H]1CCN(C(=O)c2cncc(-c3ccnc(-c4nc(C)c(C)[nH]4)c3)c2)C1` [Example 212B, 2′-(4,5-Dimethyl-1H-imidazol-2-yl)-5-{[(3S)-3-methoxypyrrolidin-1-yl]carbonyl}-3,4′-bipyridine trifluoroacetate salt], the IC50 in assay [1] (Homo sapiens) is 300 to 1000 nM; in assay [2], at most 50 nM; in assay [3], at most 100 nM.

For the molecule `Cc1nc(-c2cc(-c3cncc(C(=O)N4CCCC(O)C4)c3)ccn2)[nH]c1C` (racemic) [Example 154, (2′-(4,5-Dimethyl-1H-imidazol-2-yl)-3,4′-bipyridin-5-yl)(3-hydroxypiperidin-1-yl)methanone], the IC50 is 300 to 1000 nM in assay [1] (Homo sapiens), at most 50 nM in assay [2] and at most 100 nM in assay [3].

In the case of `Clc1ccccc1Cn1cc(-c2ccnc(-c3ncc(-c4ccccc4)[nH]3)c2)cn1` [Example 7, 4-(1-(2-Chlorobenzyl)-1H-pyrazol-4-yl)-2-(5-phenyl-1H-imidazol-2-yl)pyridine trifluoroacetate salt], the figures for the IC50 in assay [1] (Homo sapiens), in assay [2] and in assay [3] were above 5000 nM, at most 100 nM and at most 500 nM, respectively.

Take `Cc1nc(-c2cc(-c3cncc(C(=O)N4CCC(C#N)C4)c3)ccn2)[nH]c1C` (racemic) [Example 183, 1-{[2′-(4,5-Dimethyl-1H-imidazol-2-yl)-3,4′-bipyridin-5-yl]carbonyl}pyrrolidine-3-carbonitrile trifluoroacetate salt]: the IC50 in assay [1] (Homo sapiens) was 300 to 1000 nM; in assay [2], at most 50 nM; in assay [3], at most 50 nM.

Regarding `FC(F)(F)c1cnc(-c2cc(-c3cncc(N4CCOCC4)c3)ccn2)[nH]1` [Example 99, 4-(2′-(5-(Trifluoromethyl)-1H-imidazol-2-yl)-3,4′-bipyridin-5-yl)morpholine trifluoroacetate salt], the IC50 is above 5000 nM in assay [1] (Homo sapiens), at most 50 nM in assay [2] and at most 500 nM in assay [3].

Turning to `Cc1[nH]c(-c2cc(-c3cncc(S(C)(=O)=O)c3)ccn2)nc1C(=O)N1CC(O)C1` [Example 247, l-({5-Methyl-2-[5-(methylsulfonyl)-3,4′-bipyridin-2′-yl]-1H-imidazol-4-yl}carbonyl)azetidin-3-ol], the IC50 in assay [1] is above 5000 nM; in assay [2], at most 50 nM; in assay [3], at most 50 nM.

On to `CS(=O)(=O)c1cncc(-c2ccnc(-c3ncc(-c4ccccc4)[nH]3)c2)c1` [Example 40, 5-(Methylsulfonyl)-2′-(5-phenyl-1H-imidazol-2-yl)-3,4′-bipyridine trifluoroacetate salt], for which the IC50 in assay [1] (Homo sapiens) was at most 300 nM; in assay [2], at most 50 nM; in assay [3], at most 50 nM.

`Cc1[nH]c(-c2cc(-c3cncc(N4CCOCC4)c3)ccn2)nc1C(=O)NC(C)C` [Example 268, N-Isopropyl-5-methyl-2-(5-morpholin-4-yl-3,4′-bipyridin-2′-yl)-1H-imidazole-4-carboxamide trifluoroacetate salt]: the IC50 in assay [1] (Homo sapiens) is 300 to 1000 nM; in assay [2], at most 50 nM; in assay [3], at most 50 nM.

Turning to `Cc1nc(-c2cc(-c3cncc(C(=O)N4CC(C)(C)C4)c3)ccn2)[nH]c1C` [Example 185, 5-[(3,3-Dimethylazetidin-1-yl)carbonyl]-2′-(4,5-dimethyl-1H-imidazol-2-yl)-3,4′-bipyridine trifluoroacetate salt], the values for the IC50 in assay [1] (Homo sapiens), in assay [2] and in assay [3] were at most 300 nM, at most 50 nM and at most 100 nM, respectively.

For the molecule `Cc1nc(-c2cc(-c3cncc(C(=O)N4CC[C@@H](O)C4)c3)ccn2)[nH]c1C` [Example 163, (R)-(2′-(4,5-Dimethyl-1H-imidazol-2-yl)-3,4′-bipyridin-hydroxypyrrolidin-1-yl)methanone trifluoroacetate salt], the results for the IC50 in assay [1], in assay [2] and in assay [3] were at most 300 nM, at most 50 nM and at most 50 nM, respectively.

Take `COc1cncc(-c2ccnc(-c3ncc(-c4ccccn4)[nH]3)c2)c1` [Example 87, 5-Methoxy-2′-(5-(pyridin-2-yl)-1H-imidazol-2-yl)-3,4′-bipyridine trifluoroacetate salt]: the IC50 was above 5000 nM in assay [1] (Homo sapiens), at most 100 nM in assay [2] and at most 50 nM in assay [3].

`COC(=O)C1CCN(C(=O)c2cncc(-c3ccnc(-c4nc(C)c(C)[nH]4)c3)c2)C1` (racemic) [Example 175, Methyl 1-{[2′-(4,5-dimethyl-1H-imidazol-2-yl)-3,4′-bipyridin-5-yl]carbonyl}pyrrolidine-3-carboxylate trifluoroacetate salt]: the values for the IC50 in assay [1] (Homo sapiens), in assay [2] and in assay [3] were at most 300 nM, at most 50 nM and at most 50 nM, respectively.

For `Cc1nc(-c2cc(-c3cncc(C4=CCN(S(C)(=O)=O)C4)c3)ccn2)[nH]c1C` [Example 237, 2′-(4,5-Dimethyl-1H-imidazol-2-yl)-5-[1-(methylsulfonyl)-2,5-dihydro-1H-pyrrol-3-yl]-3,4′-bipyridine], the IC50 in assay [1] (Homo sapiens) was at most 300 nM; in assay [2], at most 50 nM; in assay [3], at most 50 nM.

As for `Cc1nc(-c2cc(-c3cncc(C(=O)N4C[C@H](CO)[C@@H](C)C4)c3)ccn2)[nH]c1C` [Example 172, ((3R,4R)-1-{[2′-(4,5-Dimethyl-1H-imidazol-2-yl)-3,4′-bipyridin-5-yl]carbonyl}-4-methylpyrrolidin-3-yl)methanol trifluoroacetate salt], the IC50 was 300 to 1000 nM in assay [1] (Homo sapiens), at most 50 nM in assay [2] and at most 50 nM in assay [3].

`CCNC(=O)c1nc(-c2cc(-c3cncc(S(C)(=O)=O)c3)ccn2)[nH]c1C` [Example 252, N-Ethyl-5-methyl-2-[5-(methylsulfonyl)-3,4′-bipyridin-2′-yl]-1H-imidazole-4-carboxamide trifluoroacetate salt]: the IC50 was at most 300 nM in assay [1] (Homo sapiens), at most 50 nM in assay [2] and at most 50 nM in assay [3].

These data come from patent US11352340B2, “Pyridine and pyridimine compounds as PI3K-gamma inhibitors” (Incyte Corporation, priority 2016, dated 2022).
